Calls of active or inactive are those of the source. The calls are words filed in the database; no cut-off is given here. Where a SMILES comes first, the peptide text is derived from it.
Columns and labels:
[1] = target: T1, NAD-dependent protein deacetylase sirtuin-1 (Homo sapiens) (UniProt Q96EB6); experiment: Activation of SIRT1 in Alzheimer's disease patient serum assessed as increase in deacetylation of SIRT1 substrate peptide at 5 mM preincubated for 1 hr followed by substrate addition measured after 1 hr by fluorescence spectroscopic method
T1 sequence (whole entry): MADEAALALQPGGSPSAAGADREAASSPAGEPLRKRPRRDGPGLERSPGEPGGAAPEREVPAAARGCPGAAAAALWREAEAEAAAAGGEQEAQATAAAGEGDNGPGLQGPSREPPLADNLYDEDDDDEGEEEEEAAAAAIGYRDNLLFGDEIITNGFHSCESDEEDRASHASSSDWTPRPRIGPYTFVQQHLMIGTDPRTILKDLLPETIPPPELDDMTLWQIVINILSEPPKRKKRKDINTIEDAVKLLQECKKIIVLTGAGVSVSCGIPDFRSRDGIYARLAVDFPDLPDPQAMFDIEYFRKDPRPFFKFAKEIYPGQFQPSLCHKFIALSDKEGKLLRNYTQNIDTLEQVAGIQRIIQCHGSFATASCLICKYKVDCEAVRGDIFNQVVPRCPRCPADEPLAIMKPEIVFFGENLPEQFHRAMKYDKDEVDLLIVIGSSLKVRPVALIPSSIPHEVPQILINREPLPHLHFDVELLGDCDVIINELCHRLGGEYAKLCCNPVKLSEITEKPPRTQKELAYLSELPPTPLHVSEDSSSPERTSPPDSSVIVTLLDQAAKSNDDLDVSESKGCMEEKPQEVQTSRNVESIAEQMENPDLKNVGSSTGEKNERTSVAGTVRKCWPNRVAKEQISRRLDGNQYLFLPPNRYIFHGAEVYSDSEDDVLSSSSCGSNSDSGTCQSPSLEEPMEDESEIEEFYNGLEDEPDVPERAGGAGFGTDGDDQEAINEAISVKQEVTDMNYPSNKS

[2] = target: T1, NAD-dependent protein deacetylase sirtuin-1 (Homo sapiens); experiment: Activation of SIRT1 (unknown origin) expressed in bacterial expression system assessed as increase in enzyme activity at 100 uM using Fluorophore labeled-Arg-His-Lys-Lys (Ac) as substrate incubated for 30 mins in presence of NAD+ by fluorimetric method relative to control
[3] = target: T1, NAD-dependent protein deacetylase sirtuin-1 (Homo sapiens); experiment: Activation of SIRT1 in human IMR32 cells assessed as protection against amyloid beta (25 to 35)-induced toxicity by measuring cell viability at 40 uM after 48 hrs by MTT assay (reference value: 56.3 +/- 1.2%); format: cell-based
[4] = target: T1, NAD-dependent protein deacetylase sirtuin-1 (Homo sapiens); experiment: Activation of SIRT1 (unknown origin) expressed in bacterial expression system assessed as increase in enzyme activity at 105 uM using Fluorophore labeled-Arg-His-Lys-Lys (Ac) as substrate incubated for 30 mins in presence of NAD+ by fluorimetric method relative to control
[5] = target: T1, NAD-dependent protein deacetylase sirtuin-1 (Homo sapiens); experiment: Allosteric activation of SIRT1 in human IMR32 cells assessed as decrease in acetylation level of K382 residue of p53 at 160 uM after 48 hrs in presence of SIRT1 inhibitor nicotinamide by Western blot method; format: cell-based
[6] = target: T1, NAD-dependent protein deacetylase sirtuin-1 (Homo sapiens); experiment: Activation of SIRT1 (unknown origin) expressed in bacterial expression system assessed as increase in enzyme activity using Fluorophore labeled-Arg-His-Lys-Lys (Ac) as substrate incubated for 30 mins in presence of NAD+ by fluorimetric method
[7] = target: T2, NAD-dependent protein deacetylase sirtuin-2 (Homo sapiens) (UniProt Q8IXJ6); experiment: Activity at SIRT2 in Alzheimer's disease patient serum assessed as effect on deacetylation of SIRT2 substrate peptide at 1.5 to 3 mM preincubated for 1 hr followed by substrate addition measured after 1 hr by fluorescence spectroscopic method
T2 sequence (whole entry): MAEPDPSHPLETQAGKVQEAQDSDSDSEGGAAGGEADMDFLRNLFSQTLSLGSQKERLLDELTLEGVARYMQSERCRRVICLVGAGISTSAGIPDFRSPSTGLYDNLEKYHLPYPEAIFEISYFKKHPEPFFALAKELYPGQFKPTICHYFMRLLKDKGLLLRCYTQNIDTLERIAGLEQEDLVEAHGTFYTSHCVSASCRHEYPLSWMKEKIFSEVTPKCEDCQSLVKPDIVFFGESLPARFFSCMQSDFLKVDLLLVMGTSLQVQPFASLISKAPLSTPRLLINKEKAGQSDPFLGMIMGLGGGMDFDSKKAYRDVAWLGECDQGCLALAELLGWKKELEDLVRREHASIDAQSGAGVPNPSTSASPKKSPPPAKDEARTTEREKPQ

[8] = target: T1, NAD-dependent protein deacetylase sirtuin-1 (Homo sapiens); experiment: Activation of SIRT1 in human IMR32 cells assessed as protection against amyloid beta (25 to 35)-induced toxicity by measuring cell viability at 20 uM after 48 hrs by MTT assay (reference value: 56.3 +/- 1.2%); format: cell-based
[9] = target: T1, NAD-dependent protein deacetylase sirtuin-1 (Homo sapiens); experiment: Activation of SIRT1 in Alzheimer's disease patient serum assessed as increase in deacetylation of SIRT1 substrate peptide at 1.5 to 3 mM preincubated for 1 hr followed by substrate addition measured after 1 hr by fluorescence spectroscopic method relative to control
[10] = target: T1, NAD-dependent protein deacetylase sirtuin-1 (Homo sapiens); experiment: Activation of SIRT1 in human IMR32 cells assessed as protection against amyloid beta (25 to 35)-induced toxicity by measuring cell viability at 10 uM after 48 hrs by MTT assay (reference value: 56.3 +/- 1.2%); format: cell-based
[11] = target: T1, NAD-dependent protein deacetylase sirtuin-1 (Homo sapiens); experiment: Activation of SIRT1 in human IMR32 cells assessed as protection against amyloid beta (25 to 35)-induced toxicity by measuring cell viability at 80 uM after 48 hrs by MTT assay (reference value: 56.3 +/- 1.2%); format: cell-based
[12] = target: T1, NAD-dependent protein deacetylase sirtuin-1 (Homo sapiens); experiment: Activation of SIRT1 (unknown origin) expressed in bacterial expression system assessed as increase in enzyme activity at >145 uM using Fluorophore labeled-Arg-His-Lys-Lys (Ac) as substrate incubated for 30 mins in presence of NAD+ by fluorimetric method
[13] = target: T1, NAD-dependent protein deacetylase sirtuin-1 (Homo sapiens); experiment: Allosteric activation of SIRT1 in human IMR32 cells assessed as decrease in acetylation level of K382 residue of p53 after 48 hrs by Western blot method; format: cell-based

With `NC(=O)c1cccnc1` the Activity [1] was “inactive”.
`CC(C)C[C@H](NC(=O)[C@@H](N)CC(N)=O)C(=O)N[C@@H](CCCNC(=N)N)C(=O)O` (H-Asn-Leu-Arg-OH) gave an Activity [2] of 6%.
Work on `N=C(N)NCCC[C@H](NC(=O)[C@H](Cc1c[nH]c2ccccc12)NC(=O)[C@@H](N)CC(N)=O)C(=O)O` (H-Asn-Trp-Arg-OH) yielded an Activity [2] of 24%.
Work on `N=C(N)NCCC[C@H](NC(=O)[C@H](Cc1ccc(O)cc1)NC(=O)[C@@H](N)CC(N)=O)C(=O)O` (H-Asn-Tyr-Arg-OH) yielded an Activity [2] of 4%.
With `N=C(N)NCCC[C@H](NC(=O)[C@H](Cc1c[nH]c2ccccc12)NC(=O)[C@@H](N)CS)C(=O)O` (H-Cys-Trp-Arg-OH) the Activity [3] was 79.8%, the fold change (FC) [4] was 2 and the Activity [5] was “inactive”. For the same molecule, the EC1.5 [6] was 55 µM, the Activity [7] was “inactive” and the Activity [8] was 68%. It also gave an Activity [9] of 21.2%, an Activity [10] of 57.1% and an Activity [11] of 83.4%. For the same molecule, the Activity [12] was “Active”, the Activity [13] was “Dose-dependent effect” and the Activity [2] was 97%.
Work on `N=C(N)NCCC[C@H](NC(=O)[C@H](Cc1ccc(O)cc1)NC(=O)[C@@H](N)CCC(N)=O)C(=O)O` (H-Gln-Tyr-Arg-OH) yielded an Activity [2] of 12%.
In the case of `N[C@@H](Cc1cnc[nH]1)C(=O)N[C@@H](CCC(=O)O)C(=O)N[C@@H](Cc1ccc(O)cc1)C(=O)O` (H-His-Glu-Tyr-OH), the Activity [2] is reported as 15%.
`N=C(N)NCCC[C@H](NC(=O)[C@@H]1CCCN1C(=O)[C@@H](N)Cc1cnc[nH]1)C(=O)O` (H-His-Pro-Arg-OH) showed an Activity [2] of -10%.
With `N=C(N)NCCC[C@H](NC(=O)[C@H](Cc1ccc(O)cc1)NC(=O)[C@@H](N)Cc1cnc[nH]1)C(=O)O` (H-His-Tyr-Arg-OH) the Activity [2] was 19%.
In the case of `CC(C)[C@H](NC(=O)[C@@H](N)Cc1cnc[nH]1)C(=O)N[C@@H](CCCNC(=N)N)C(=O)O` (H-His-Val-Arg-OH), the Activity [2] is reported as 5%.
In the case of `N=C(N)NCCC[C@H](NC(=O)[C@H](Cc1c[nH]c2ccccc12)NC(=O)[C@@H](N)Cc1ccccc1)C(=O)O` (H-Phe-Trp-Arg-OH), the Activity [2] is reported as 28%.

From ChEMBL document CHEMBL4007386, “Design, synthesis of allosteric peptide activator for human SIRT1 and its biological evaluation in cellular model of Alzheimer's disease” (Eur J Med Chem, 2017)
